Values of other authors as cited in patent US11077316B2, “Insertion devices and systems for production of emitted light internal to a medium and methods for their use” (Immunolight, LLC, priority 2016, dated 2021).
Read-outs that look alike come from different tables or passages of the source.

Legend:
[1] = test system: Zaire Ebola virus (ZEBOV); settings: UV light 310 to 360 nm, ex situ in extracted blood
[2] = test system: Venezuelan equine encephalitis virus (VEEV); settings: INA exposed to full light conditions
[3] = orange juice, high UV exposure of 100 mJ/cm^2
Acinetobacter baumannii = settings: released nitric oxide, light 100 milliWatts per square centimeter

Compound: Oc1cccc(-c2c3nc(c(-c4cccc(O)c4)c4ccc([nH]4)c(-c4cccc(O)c4)c4nc(c(-c5cccc(O)c5)c5ccc2[nH]5)CC4)C=C3)c1 [Foscan, Tetra (m-hydroxyphenyl) chlorin]
- duration of skin photosensitivity (clinical): approximately 2 weeks

Compound: [N-]=[N+]=Nc1cccc2c(I)cccc12 [INA, 1,5-iodonaphthyl-azide]
- infectivity of ZEBOV after INA treatment [1]: completely noninfectious
- inactivation of virulent strain of VEEV [2]: efficiently inactivate

Compound: CC(=O)[O-].CC(=O)[O-].CCc1c(CC)c2cc3nc(cnc4cc(OCCOCCOCCOC)c(OCCOCCOCCOC)cc4ncc4nc(cc1[n-]2)C(CCCO)=C4C)C(C)=C3CCCO.O.[Lu+3] [Motexafin lutetium]
- duration of skin photosensitivity (in vivo): 24 to 48 h

Compound: O=C1O[C@H]([C@@H](O)CO)C(O)=C1O [Vitamin C]
- degradation of Vitamin C [3]: 17%

Compound: [Mn(PaPy3)(NO)](ClO4)
- clearing of bacteria from treated areas of plates (Acinetobacter baumannii): effectively cleared the bacteria
